This passage reports pKa results from ChEMBL document CHEMBL1123714, “Potential antitumor agents. 48. 3'-Dimethylamino derivatives of amsacrine: redox chemistry and in vivo solid tumor activity” (J Med Chem, 1987).

The data set is described as follows: physchem. The following applies: 20% DMF.

On to `CN(C)c1cc(NS(C)(=O)=O)ccc1Nc1c2ccccc2nc2ccccc12`, for which the pKa was 7.25. With `CNc1cc(NS(C)(=O)=O)ccc1Nc1c2ccccc2nc2ccccc12` the figure was 7.47.

One may read the pKa as the negative logarithm of the acid dissociation constant. High values mean a group that holds its proton tightly, low ones a group that gives up its proton readily.
